This is an account of results in patent publication US10544131B2, “MCL-1 antagonists” (The Regents of the University of California, priority 2014, dated 2020).

SMILES strings stand for the structures. Entries after “also recorded” stand apart in the source; their conditions may differ.

The Kd is the concentration at which binding is half-saturated.

One data set concerns Mcl-1/Bak PPI. Kind of data set: liposome functional assay for Mcl-1/Bak (calcein release, MOMP model). Type of data set: biochemical. As to conditions: in words. An excerpt:
The Shore lab has developed a functional assay utilizing recombinant proteins anchored in artificial liposomes that enables the evaluation of small-molecules to disrupt the Mcl-1/Bak PPI (FIG. 2A). In this assay, full-length functional single cysteine mutants of Mcl-1 and Bak were anchored into lipids (with PE's) utilizing the engineered cysteine residues as a handle. This allows Applicants to recapitulate Bak-mediated mitochondrial permeabilization and measure the various protein-protein and protein-membrane interactions involved in Mcl-1 regulation of Bak. The release of calcenin (Cn) dye encapsulated in the liposome was used to quantify membrane permeabilization. When the system is untreated, Mcl-1 sequesters Bak by engaging its BH3 domain. Incubation with an active inhibitor neutralizes Mcl-1. This triggers Bak auto-oligomerization resulting in the formation of pores in the lipid membrane and release of Cn. By measuring […] from Cn, Applicants can quantify antagonism of Mcl-1 in real time.
(§1) Synthetic 3, along with numerous intermediates and their derivatives were assayed in a model system for mitochondrial outer membrane permeabilization (MOMP). This liposome based experiment recapitulates a signaling axis involving pro-apoptotic Bak, anti-apoptotic Mcl-1, and an active, truncated 15 kDa subunit of the pro-death protein Bid (tBid).^11 Bak and Mcl-1 are transmembrane proteins constitutively anchored in the mitochondrial outer membrane. tBid translocates to mitochondria upon cleavage of Bid by caspase-8 and stimulates MOMP by directly activating free Bak and by disengaging any activated Bak from Mcl-1. Applicants' assay mimics these events using recombinant, lipidated Mcl-1 and Bak that are constitutively bound to unilamellar liposomes encapsulating calcein dye. tBid addition initiates Bak homo oligomerization and pore formations, which in turn results in calcein release and a fluorescence signal. Mcl-1 counters this tBid dependent activation of Bak, which is overcome by small molecule Mcl-1 antagonists (FIG. 6).

For a further data set, the target named is Bcl-xL (Homo sapiens, UniProt Q07817). Kind of data set: liposome assay with Bcl-xL in place of Mcl-1. The class given is biochemical. An excerpt: (§2) Moreover, when Mcl-1 was replaced with Bcl-xL in the assay, 12 also had no effect (FIG. 10). […] Toxic thrombocytopenia caused by ABT-737 in vivo has been correlated with Bcl-xL inhibition.^25
Bcl-xL, sequence (Q07817 whole entry, species assumed): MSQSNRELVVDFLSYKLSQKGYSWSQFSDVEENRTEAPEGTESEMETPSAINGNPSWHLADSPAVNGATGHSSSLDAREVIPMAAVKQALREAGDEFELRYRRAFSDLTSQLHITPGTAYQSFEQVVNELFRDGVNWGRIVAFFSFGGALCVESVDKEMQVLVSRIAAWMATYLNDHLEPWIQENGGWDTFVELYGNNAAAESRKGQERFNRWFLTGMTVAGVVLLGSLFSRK
Another data set relates to Bak. As to the kind of experiment: liposome assay with Bak-loaded proteoliposomes lacking Mcl-1. The class given is biochemical. As to conditions: Bak loaded proteoliposomes without Mcl-1. How it is done:
as §1
(§3) Recombinant Mcl-1 was expressed and purified from E. coli.
as §2

Another data set concerns the target T1, recombinant Mcl-1 (Homo sapiens, UniProt Q07820).
T1 construct: made in house; host or cells: E. coli
Kind of data set: isothermal titration microcalorimetry (ITC) with purified recombinant Mcl-1. Type of data set: binding. As to conditions: for binding / affinity for Mcl-1 measurable by ITC: purified recombinant Mcl-1, in words. A general note: ITC needs no label: the signal is the heat of the interaction.

A short description of data set [1]: stability of the neat substance. As to conditions: in words. The class given is physicochemical.
Another data set relates to truncated Bid. Kind of data set: binding to truncated Bid. As to conditions: data not shown.
From the text: as §3

The subject of data set [2] is Ep-myc (myr) Akt lymphoma cells. As to the kind of experiment: mouse lymphoma model with and without doxorubicin, tumor-free survival. The class given is in vivo, C57BL/6 mice. How it is done: C57BL/6 mice were tail-vein injected with Ep-myc (myr) Akt lymphoma cells and palpable tumors (multiple sites per animal) allowed to develop. Animals were randomized for tumor burden and treated by intraperitoneal (IP) injection with vehicle, or vehicle containing obatoclax (10 mg/kg) or JHF3056 (40 mg/kg) daily×5. In addition, animals received a single injection of doxorubicin (IP, 10 mg/kg) on day 2 of the injection regimen, either alone or in combination with the obatoclax (9) or JHF3056 (10) regimen. Animals were allowed to become tumor-free (no observable palpable tumors) and then tumor-free survival was measured (time to re-appearance of tumors).

Data set [3] has as its system human KMS-11 myeloid leukemia cells. Kind of data set: cytotoxicity in cell culture, KMS-11. As to conditions: KMS-11 cells, single dose, in words. Type of data set: cell-based.
The next data set concerns human KMS-11 cells. Kind of data set: cytotoxicity in cell culture, KMS-11. As to conditions: 1.0 μM concentration. The class given is cell-based.
Data set [4] can be described thus: in vivo toxicity (minimum toxic dose).

T1 sequence (Q07820 whole entry): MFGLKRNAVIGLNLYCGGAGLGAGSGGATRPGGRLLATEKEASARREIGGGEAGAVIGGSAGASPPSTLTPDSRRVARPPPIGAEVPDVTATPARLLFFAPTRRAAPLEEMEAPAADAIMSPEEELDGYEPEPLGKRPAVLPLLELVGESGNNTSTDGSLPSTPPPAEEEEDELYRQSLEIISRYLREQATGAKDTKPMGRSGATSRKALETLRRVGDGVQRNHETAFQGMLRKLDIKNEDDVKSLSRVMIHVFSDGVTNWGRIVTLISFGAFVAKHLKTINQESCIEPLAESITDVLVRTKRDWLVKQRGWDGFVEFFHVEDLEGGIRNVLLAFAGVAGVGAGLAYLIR

As for `COc1cc(-c2c(Cl)ccn2S(=O)(=O)c2ccc(C)cc2)oc1-c1nnn[nH]1` [Compound 12], the “antagonism of Mcl-1 / Bak-mediated permeabilization of liposomal membranes” value in the data set with Mcl-1/Bak PPI is “stimulate Bak-mediated permeabilization of liposomal membranes; also recorded: successfully drove pore formations; also recorded: exceeded that of 5 and obatoclax”. For the same molecule, on Bcl-xL, the “MOMP-like pore formation in liposomes containing Bcl-xL” value is “no effect; also recorded: did not stimulate MOMP-like pore formations”. In the data set with Bak, the “calcein release from liposomes lacking Mcl-1” value is reported as “did not release calcein dye”. Besides, the Kd on recombinant Mcl-1 (purified recombinant Mcl-1) came to 700 ± 120 nM. Moreover, at recombinant Mcl-1, the “binding / affinity for Mcl-1 measurable by ITC” value is “strong, saturable binding”.

With `COc1cc(-c2c(Cl)ccn2S(=O)(=O)c2ccc(C)cc2)oc1C(C)=O` [JHF3056, 1-(5-(3-chloro-1-tosyl-1H-pyrrol-2-yl)-3-methoxyfuran-2-yl)ethan-1-one], the stability result in data set [1] is “stable solid”; in [1] (listed as 5), “bench stable solid”. Besides, the “binding to truncated Bid” value with truncated Bid is “no binding”. Moreover, the “anti-tumor activity in combination with doxorubicin” value in data set [2] (JHF3056 40 mg/kg IP daily×5, doxorubicin 10 mg/kg IP day 2) is on record as “sensitizes lymphoma tumor xenografts to doxorubicin”; in [2] (JHF3056 40 mg/kg IP daily×5, doxorubicin 10 mg/kg IP day 2, listed as 10), “clear anti-tumor activity in combination with the chemotherapeutic doxorubicin”. Moreover, the “antagonism of Mcl-1 / Bak-mediated permeabilization of liposomal membranes” value with Mcl-1/Bak PPI was “capacity to antagonize the Mcl-1/Bak PPI; also recorded: directly antagonizes Mcl-1; also recorded: superior performance of JHF3056 (10) relative to 8 and 9”; in the data set on Mcl-1/Bak PPI (listed as 5), “counter Mcl-1 activity and promote Bak-mediated permeabilization of liposomal membranes; also recorded: near equipotent to 4”; in the data set on Mcl-1/Bak PPI (listed as 10) it was “promising activity”. Also, the “calcein release from liposomes lacking Mcl-1” value in the data set with Bak is listed as “did not induce release of calcein”. Also, the cytotoxicity entry is reported as “cytotoxic at micromolar concentrations; also recorded: sub-micromolar cytotoxicity” in data set [3] and “sub-micromolar single dose cytotoxicity” in data set [3] (listed as 10). For the same molecule, the “cytotoxic activity relative to obatoclax” value in the data set with human KMS-11 cells is recorded as “enhanced activity relative to obatoclax (9)”. In data set [4] (in vivo), this molecule came in with a minimum toxic dose of 80 mg/kg. For the same molecule, the “toxicity at pharmacologically relevant doses” value in data set [4] (in words) is “nontoxic at pharmacologically relevant doses”. On recombinant Mcl-1 (listed as 5), the “binding / affinity for Mcl-1 measurable by ITC” value was “Neither 2 nor 5 demonstrated measurable affinity”.

In the case of `COc1cc(-c2[nH]ccc2Cl)oc1C1=C2N=C3C=C2[C@H](C(C)C)[C@H]1CCCCCCCC3` [roseophilin, reference compound], the “antagonism of Mcl-1 / Bak-mediated permeabilization of liposomal membranes” value in the data set with Mcl-1/Bak PPI is listed as “little activity”.
